Earlier results, collected in patent US20250195458A1, “SHORT-CHAIN FATTY ACIDS FOR CANCER TREATMENT” (priority 2022, published 2025).

Key:
colorectal cancer cells = conditions: literature summary of Example 2
[1] = tested on: pancreatic carcinoma cell lines (Capan-2, AsPC-1, and MiaPaCa-2); conditions: Capan-2, AsPC-1, MiaPaCa-2; literature summary of Example 2
human lung cancer cells = conditions: literature summary of Example 2
pancreatic cancer = conditions: literature summary of Example 2

## CC(=O)O [Acetate]
Colorectal cancer cells
  Anti-tumor effect in colorectal cancer (apoptosis): triggers apoptosis in colorectal cancer cells

## CC(=O)O[C@]1(C(C)=O)CC[C@H]2[C@@H]3C[C@H](C)C4=CC(=O)CC[C@]4(C)[C@H]3CC[C@@]21C [Medroxyprogesterone acetate]
[1]
  Proliferation of pancreatic carcinoma cell lines: blocks the proliferation

## CCC(=O)O [Propionate]
Human lung cancer cells
  Apoptosis and cell cycle arrest, lung cancer: triggering cell apoptosis and cell cycle arrest
Colorectal cancer cells
  Anti-tumor effect in colorectal cancer (apoptosis): induces apoptosis in colon cancer

## CCCC(=O)[O-].[Na+] [Sodium butyrate]
Human lung cancer cells
  Expression levels of P-gp and STAT3 in human lung cancer cells: increases the expression levels of P-gp and STATS3
Pancreatic cancer
  Invasion of pancreatic cancer: hinders the invasion of pancreatic cancer
